IC50 data for one compound are collected here from BindingDB's records for patent US20250188037 (Takeda Pharmaceutical, 2025).

Structures are written as SMILES. pIC50: −log10 of the molar value.

For assay [1], the target named is Somatostatin receptor type 4 (Homo sapiens, UniProt P31391). Briefly: SSTR4 I-125 Somatostatin Competition Binding Assay for Selectivity Versus SSTR4.
Protocol: Then 1 μg of SSTR4 membranes in 50 μL assay buffer are added per well. The Plate is incubated for 60 minutes at room temperature. […] The contents of the assay plate are transferred to filters with a TomTech harvester and washed 5 times with 20 mM HEPES, 100 mM NaCl. […] The scintillator sheets are melted to filters using a heat block. The filters are then read in a MicroBeta scintillation counter. Binding Ki curves are generated using Activity Base for Screening Data Management and the results are reported as pIC50.
The target of assay [2] is Somatostatin receptor type 1 (Homo sapiens, UniProt P30872). Briefly: SSTR1 I-125 Somatostatin Competition Binding Assay for Selectivity Versus SSTR1.
Sequence of Somatostatin receptor type 1 (P30872 whole entry): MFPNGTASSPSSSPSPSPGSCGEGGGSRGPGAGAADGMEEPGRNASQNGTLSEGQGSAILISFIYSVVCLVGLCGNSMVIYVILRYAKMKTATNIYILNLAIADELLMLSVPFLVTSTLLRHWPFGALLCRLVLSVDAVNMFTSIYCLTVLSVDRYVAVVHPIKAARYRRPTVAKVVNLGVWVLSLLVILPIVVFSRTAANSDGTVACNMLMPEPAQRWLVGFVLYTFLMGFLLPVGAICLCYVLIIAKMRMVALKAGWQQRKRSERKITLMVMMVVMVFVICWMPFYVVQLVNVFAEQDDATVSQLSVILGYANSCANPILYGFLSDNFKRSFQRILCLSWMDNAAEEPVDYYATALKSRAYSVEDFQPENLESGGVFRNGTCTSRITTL
Protocol: Then 10 μg of SSTR1 membranes in 50 μL assay buffer are added per well. The plate is incubated for 60 minutes at room temperature. […] The contents of the assay plate are transferred to filters with a TomTech harvester and washed 5 times with 20 mM HEPES, 100 mM NaCl. […] The scintillator sheets are melted to the filters using a heat block. The filters are then read in a MicroBeta scintillation counter. Binding Ki curves are generated using Activity Base for Screening Data Management and the results are reported as pIC50.

Sequence of Somatostatin receptor type 4 (P31391 whole entry): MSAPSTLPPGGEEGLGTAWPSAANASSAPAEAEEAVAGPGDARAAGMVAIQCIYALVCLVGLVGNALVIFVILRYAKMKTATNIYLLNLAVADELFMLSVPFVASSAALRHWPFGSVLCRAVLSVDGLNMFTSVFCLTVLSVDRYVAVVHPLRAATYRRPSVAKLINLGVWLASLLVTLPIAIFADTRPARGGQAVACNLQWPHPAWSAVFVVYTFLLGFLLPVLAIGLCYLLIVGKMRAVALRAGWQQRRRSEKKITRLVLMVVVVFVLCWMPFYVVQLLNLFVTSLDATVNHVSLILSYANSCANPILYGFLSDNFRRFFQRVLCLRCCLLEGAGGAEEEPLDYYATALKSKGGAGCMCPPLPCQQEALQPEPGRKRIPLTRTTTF

Take `O=C(N[C@H]1CCNC[C@@H]1F)C1(Cc2cccc(F)c2)CC1` [US20250188037, Example 44]: the pIC50 in assay [1] is 7.06; in assay [2] it was < 4.30.

Broadly, the pIC50 is −log10 of the IC50, conventionally taken in molar units. The low end stands for a high IC50, the high end for a low IC50.
